# Values of other authors as cited in patent publication US20160303050A1, “FORMULATIONS CONTAINING DIACEREIN AND METHODS OF LOWERING BLOOD LEVELS OF URIC ACID USING THE SAME” (TWi Biotechnology, Inc., priority 2015, published 2016).
# Settings: single oral administration of 50 mg, healthy volunteers
smiles,measurement,setting,value
"CC(=O)Oc1cccc2c1C(=O)c1c(OC(C)=O)cc(C(=O)O)cc1C2=O [diacerein, 4,5-bis (acetyloxy) 9,10-dihydro-4,5-dihydroxy-9,10-dioxo-2-anthracenecarboxylic acid]",fasting Tmax,fasting,2.4 h
same,Tmax with a meal,with a meal,5.2 h
